Results from patent US5466436A, “Medicaments for treating inflammatory conditions or for analgesia” (Glaxo Group Limited, priority 1991, dated 1995).
Counter-ions that a name gives are not always drawn.

Legend:
[1] = tested on: mucosal lesions of the gastrointestinal tract caused by non-steroidal anti-inflammatory drugs; assay: Tests in animals and humans: mucosal lesions of the gastrointestinal tract caused by non-steroidal anti-inflammatory drugs; type: in vivo
[2] = tested on: indomethacin-induced gastric antral ulceration; assay: Inhibition of indomethacin-induced gastric antral ulceration in the rat (modified Satoh et al.); type: in vivo; conditions: for inhibition of indomethacin-induced lesions (in words): ranitidine bismuth citrate 1 to 100 mg/kg po; for inhibition of indomethacin-induced lesions (in words) / potency compared with other test compounds (in words): rats; for potency compared with other test compounds (in words): ranitidine bismuth citrate versus ranitidine hydrochloride and De-Nol, po
Procedure: The ability of ranitidine bismuth citrate to prevent indomethacin-induced gastric antral ulceration was compared with that of ranitidine hydrochloride and De-Nol™. Female rats, which had been fasted for 24 hours and then re-fed, received ranitidine bismuth citrate (1 to 100mg/kg), ranitidine hydrochloride (10 to 100mg/kg) or De-Nol™ (3 to 100mg/kg) by oral gavage. Ranitidine bismuth citrate was administered as a suspension and the other test compounds as solutions. Thirty minutes after dosing with the test compound, animals received indomethacin (60mg/kg sc) as an ulcerogenic stimulus and after a further 6 hours the animals were killed and the antral region assessed macroscopically for damage.

[3] = tested on: aspirin-induced injury to the gastric mucosa; conditions: human clinical study, N. Hudson et al., Gut 1992, 33 supplement, s47; cited from earlier work
[4] = listed as Ranitidine bismuth citrate
[5] = listed as ranitidine bismuth citrate

N-[2-[[[5-[(dimethylamino)methyl]-2-furanyl]methyl]thio]ethyl]-N'-methyl-2-nitro-1,1-ethenediamine 2-hydroxy-1,2,3-propanetricarboxylate bismuth (3^+) complex [Ranitidine Bismuth Citrate]
reduction of NSAID-caused mucosal lesions of the gastrointestinal tract (in words) [1]: significantly reduced
ED50 for inhibition of indomethacin-induced antral ulceration ([2]; female rats, oral gavage 30 min before indomethacin 60 mg/kg sc, antral damage assessed after a further 6 hours): 4.5 mg/kg p.o.
inhibition of indomethacin-induced lesions (in words) [2, 4]: dose-related inhibition of indomethacin-induced lesions
inhibition of indomethacin-induced lesions (in words) [2, 5]: prevent indomethacin induced gastric antral ulceration
potency compared with other test compounds (in words) [2, 4]: relatively potent
potency compared with other test compounds (in words) [2, 5]: markedly more potent than both ranitidine hydrochloride and tripotassium dicitrato bismuthate as DeNol™
protection from aspirin-induced injury to the gastric mucosa (in words) [3]: substantial protection from aspirin-induced injury to the gastric mucosa

CNC(=C[N+](=O)[O-])NCCSCc1ccc(CN(C)C)o1 [Ranitidine Hydrochloride, ranitidine hydrochloride, reference compound]
ED50 ([2]; Rattus norvegicus, female rats, oral gavage 30 min before indomethacin 60 mg/kg sc, antral damage assessed after a further 6 hours): 23.4 mg/kg
potency compared with other test compounds (in words) [2]: markedly less potent
